Experimental data: patent US20250025417A1, “ORAL ABIRATERONE FORMULATIONS” (PROPELLA THERAPEUTICS, INC., priority 2021, published 2025)

What was measured:
[1] = Solubility of abiraterone decanoate in lipid-based vehicles at 25° C. (HPLC); type: physicochemical; settings: for Solubility (mg/g) at 25° C.: Day 13 results; for Solb (mg/g) at 25° C.: average of day 2 and day 7
Description: In this example, solubility of abiraterone decanoate in the following four vehicles were tested. Each vehicle has a distinctive base, namely, medium chain trigylceride (MCT)/polyoxylglyceride, long chain (LC) monodiglyceride, and two propylene glycol (PG) monoesters, caprylic and lauryl. • Vehicle 1: MCT/Polyoxylglyceride based: 20% Kolliphor RH40/14% Plurol Oleique CC 497/33% Labrafil 1944 CS/33% Labrafac Lipophile WL 1349 • Vehicle 2: PG Monoester based: 20% Kolliphor RH 40/14% Plurol Oleique CC 497/66% Lauroglycol 90 • Vehicle 3: PG Monoester based: 20% Kolliphor RH40/14% Plurol Oleique CC 497/66% Capmul PG-8 • Vehicle 4: LC Monodiglyceride based: 20% Kolliphor RH40/14% Plurol Oleique CC 497/66% Maisine CC
Solubilities of abiraterone decanoate in different vehicles were tested following the procedure below: • Prepare 5 g of each vehicle by weight • In a 4-mL vial, weigh about 350 mg drug and then add 2 mL of vehicle • Sonicate and vortex all samples, then place on a rotator at 25° C. • At the end of the day check the samples to see if the drug completely dissolved. If so, use wax paper to transfer additional drug, record the additional amount added. • After 2-3 days, remove about 0.5 mL from each sample and filter using a microcentrifuge. […] Results were obtained for samples after 2 days and after 7 days.
The vehicles being tested have the following compositions: • Vehicle 1 (see Example 2): 20% Kolliphor RH40/14% Plurol Oleique CC 497/33% Labrafil 1944 CS/33% Labrafac Lipophile WL 1349, used as a control. • Vehicle 5: 20% Kolliphor RH40/14% Plurol Oleique CC 497/33% Maisine CC/33% Labrafac Lipophile WL 1349* • Vehicle 6: 20% Kolliphor RH40/14% Plurol Oleique CC 497/16% Labrafil 1944 CS/30% Maisine CC/20% Labrafac Lipophile WL 1349 • Vehicle 7: 20% Kolliphor RH40/14% Plurol Oleique CC 497/16% Labrafil 1944 CS/30% Capmul PG-8/20% Labrafac Lipophile WL 1349 • Vehicle 8: 20% Kolliphor RH40/14% Plurol Oleique CC 497/16% Labrafil 1944 CS/30% Capmul PG-12/20% Labrafac Lipophile WL 1349 • Vehicle 9: 20% Kolliphor RH40/14% Plurol Oleique CC 497/16% Labrafil 1944 CS/30% Labrafil M 2130 CS/20% Labrafac Lipophile WL 1349
The procedures for preparing samples and solubility testing are similar to those described in Example 2.

[2] = Forms A, B, and C

CCCCCCCCCC(=O)O[C@H]1CC[C@@]2(C)C(=CC[C@@H]3[C@@H]2CC[C@]2(C)C(c4cccnc4)=CC[C@@H]32)C1 [abiraterone decanoate]
solubility in lipid based vehicles (in words) ([1]; Examples 2 and 3): good solubilities | Solubility (mg/g) at 25° C. ([1]; Vehicle 1 (control)): 101.1 mg/g | Solb (mg/g) at 25° C. ([1]; Vehicle 1: 20% Kolliphor RH40/14% Plurol Oleique CC 497/33% Labrafil 1944 CS/33% Labrafac Lipophile WL 1349): 88.5 mg/g | Solb (mg/g) at 25° C. ([1]; Vehicle 2: 20% Kolliphor RH 40/14% Plurol Oleique CC 497/66% Lauroglycol 90): 143.9 mg/g | Solb (mg/g) at 25° C. ([1]; Vehicle 3: 20% Kolliphor RH40/14% Plurol Oleique CC 497/66% Capmul PG-8): 149.2 mg/g | Solb (mg/g) at 25° C. ([1]; Vehicle 4: 20% Kolliphor RH40/14% Plurol Oleique CC 497/66% Maisine CC): 110.2 mg/g | Solubility (mg/g) at 25° C. ([1]; Vehicle 5: 20% Kolliphor RH40/14% Plurol Oleique CC 497/33% Maisine CC/33% Labrafac Lipophile WL 1349): 111.5 mg/g | Solubility (mg/g) at 25° C. ([1]; Vehicle 6: 20% Kolliphor RH40/14% Plurol Oleique CC 497/16% Labrafil 1944 CS/30% Maisine CC/20% Labrafac Lipophile WL 1349): 114.3 mg/g | Solubility (mg/g) at 25° C. ([1]; Vehicle 7: 20% Kolliphor RH40/14% Plurol Oleique CC 497/16% Labrafil 1944 CS/30% Capmul PG-8/20% Labrafac Lipophile WL 1349): 141.2 mg/g | Solubility (mg/g) at 25° C. ([1]; Vehicle 8: 20% Kolliphor RH40/14% Plurol Oleique CC 497/16% Labrafil 1944 CS/30% Capmul PG-12/20% Labrafac Lipophile WL 1349): 132.9 mg/g | DVS Max H2O uptake (wt %) [2]: N/A - non-hygroscopic
